Experimental data taken from PubChem BioAssay (NCI).
Values joined by “and” are separate entries in the source; they are usually repeats but may differ in a detail not shown here. Equal entries are not always repeated.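 Each compound was tested at five concentrations against cells in 96-well plates for 48 hours. GI50: concentration for 50% inhibition of growth. Definition used: TGI = concentration required for complete inhibition of growth.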

Key:
Experiment in all cases: NCI-60 cell line screen, 48 h
ACHN renal = system: ACHN renal
CAKI-1 renal = system: CAKI-1 renal
HOP-92 NSCLC = system: HOP-92 NSCLC
MALME-3M melanoma = system: MALME-3M melanoma
MOLT-4 leukemia = system: MOLT-4 leukemia
NCI-H522 lung = system: NCI-H522 lung
OVCAR-5 ovarian = system: OVCAR-5 ovarian
RPMI-8226 leukemia = system: RPMI-8226 leukemia
SK-MEL-28 melanoma = system: SK-MEL-28 melanoma
SK-OV-3 ovarian = system: SK-OV-3 ovarian
UO-31 renal = system: UO-31 renal
DU-145 prostate = system: DU-145 prostate
SW-620 colon = system: SW-620 colon

Structure (SMILES) | TGI (ACHN renal) | TGI (CAKI-1 renal) | TGI (HOP-92 NSCLC) | TGI (MALME-3M melanoma) | TGI (MOLT-4 leukemia) | TGI (NCI-H522 lung) | TGI (OVCAR-5 ovarian) | TGI (RPMI-8226 leukemia) | TGI (SK-MEL-28 melanoma) | TGI (SK-OV-3 ovarian) | TGI (UO-31 renal) | TGI (DU-145 prostate) | TGI (SW-620 colon) | GI50 (DU-145 prostate) | GI50 (OVCAR-5 ovarian) | GI50 (SK-OV-3 ovarian) | GI50 (SW-620 colon)
CC(C)(C)c1cc(Oc2ccc(C#N)c(C#N)c2)cc(C(C)(C)C)c1 | > 100 µM | > 100 µM | > 100 µM | > 100 µM | > 100 µM | > 100 µM | > 100 µM | > 100 µM | > 100 µM | > 100 µM | > 100 µM |  |  |  |  |  | 
O=[N+]([O-])c1ccc(OP(=O)(O)OCC2OC(CP(=O)(O)O)C(O)C2O)cc1 (stereo not given) | > 100 µM | > 100 µM | > 100 µM |  | > 100 µM | > 100 µM | > 100 µM |  | > 100 µM |  | > 100 µM | > 100 µM | > 100 µM |  |  |  | 
COc1cc(CC(C)N[C@@H](C)c2ccccc2)cc(OC)c1 (stereo not given in full) | 21.1 µM and > 100 µM | > 100 µM | 10.8 µM and > 100 µM |  | 17.4 µM and > 100 µM | > 100 µM | 26 µM and > 100 µM | 11.6 µM and > 100 µM | 11.9 µM and > 100 µM | 25.5 µM and > 100 µM | 13.9 µM and > 100 µM | 25.2 µM and > 100 µM | 26.3 µM and > 100 µM | 12.6 µM and > 100 µM | 12.9 µM and > 100 µM | 12.9 µM and > 100 µM | 11.7 µM and > 100 µM
COc1ccccc1NC(=O)CC(=O)n1nc(-c2ccccc2)c(N=Nc2ccccc2[N+](=O)[O-])c1-c1ccccc1 | > 100 µM | > 100 µM | > 100 µM | > 100 µM | > 100 µM | > 100 µM | > 100 µM | > 100 µM | > 100 µM | > 100 µM | > 100 µM |  | > 100 µM |  |  |  | 
O=S(=O)(c1ccccc1)n1cnc(CCc2ccccc2)n1 | > 100 µM | > 100 µM | > 100 µM | > 100 µM | > 100 µM | > 100 µM | > 100 µM | > 100 µM | > 100 µM | > 100 µM | > 100 µM |  | > 100 µM |  |  |  | 
Cc1no[n+]([O-])c1/C=N/NS(=O)(=O)c1ccccc1 |  | > 100 µM | > 100 µM | > 100 µM | > 100 µM | > 100 µM | > 100 µM | > 100 µM | > 100 µM | > 100 µM | > 100 µM |  | > 100 µM |  |  |  | 
CC(=O)OCC1=C2C(OC(=O)C(C)C)CC3(COC(C)=O)OC3/C=C\C3(C)OC3C2OC1=O (stereo not given) | > 100 µM | > 100 µM |  | > 100 µM | > 100 µM |  | > 100 µM | > 100 µM | > 100 µM | > 100 µM | > 100 µM | > 100 µM | > 100 µM |  |  |  | 
CCCC(=O)n1[nH]c(=O)n(C(C)(C)C)c1=O | > 100 µM | > 100 µM |  | > 100 µM | > 100 µM |  | > 100 µM | > 100 µM | > 100 µM | > 100 µM | > 100 µM | > 100 µM | > 100 µM |  |  |  | 
C=C(C)C1Cc2c(cc(OC)c3c(=O)c4ccccc4n(C)c23)O1 (stereo not given) | > 100 µM | > 100 µM | > 100 µM | > 100 µM |  | 34.3 µM | > 100 µM | > 100 µM | > 100 µM | > 100 µM | > 100 µM |  | > 100 µM |  |  |  | 
COc1ccc(N2C(=O)C(C#N)=C(SC)C(C#N)C2=O)cc1 (stereo not given) | > 100 µM | > 100 µM | > 100 µM | > 100 µM | > 100 µM | > 100 µM | > 100 µM |  |  | > 100 µM |  |  | > 100 µM |  |  |  | 
C[N+](C)(C)CC(=O)N/N=C/c1oc(-c2cccc([N+](=O)[O-])c2)c(-c2cccc([N+](=O)[O-])c2)c1[N+](=O)[O-] | > 100 µM |  | > 100 µM | > 100 µM |  | > 100 µM | > 100 µM | 55.3 µM | > 100 µM | > 100 µM | > 100 µM |  | > 100 µM |  |  |  | 
NC(CCC(=O)NC(CSC(=O)N(O)c1ccc(Cl)cc1)C(=O)NCC(=O)O)C(=O)O (stereo not given) | > 0.5 µM | > 0.5 µM | > 0.5 µM |  | > 0.5 µM | > 0.5 µM | > 0.5 µM | > 0.5 µM | > 0.5 µM | > 0.5 µM | > 0.5 µM | > 0.5 µM | > 0.5 µM |  |  |  | 
O=C(Cc1nc2ccc(C(=O)c3ccccc3)cc2[nH]c1=O)C(=O)Nc1ccc(C(F)(F)F)cc1[N+](=O)[O-] | > 100 µM | > 100 µM | > 100 µM | > 100 µM | > 100 µM | > 100 µM | > 100 µM | > 100 µM | > 100 µM | > 100 µM | > 100 µM |  | > 100 µM |  |  |  | 
CC(=O)C(CN(C)Cc1ccccc1)C(c1ccccc1)c1c(O)c2ccccc2oc1=O (stereo not given) | > 100 µM | > 100 µM | > 100 µM | > 100 µM | > 100 µM | > 100 µM | > 100 µM | > 100 µM | > 100 µM | > 100 µM | 83.7 µM |  | > 100 µM |  |  |  | 
